Experimental findings from patent US20220348868A1, “METHOD OF PRODUCING SKIN-DERIVED PRECURSOR CELLS” (KAO CORPORATION, priority 2014, published 2022) are described below.

This test concerns human iPS cell-derived neural crest stem cells. In words: Induction of differentiation from human iPS cell-derived neural crest stem cells to SKPs, observed by microphotograph. It is filed as cell-based. As to conditions: CHIR99021 added at 0.5 micromolar to 5 micromolars (tested 0, 0.1, 0.5, 3, 5 micromolar). Here is the method:
Based on the method described in Nature protocols, 5, pp. 688-701 (2010) or Cell reports, 3, pp. 1140-1152 (2013), the iPS cells subjected to the passage culture in Test Example 1 were cultured in a culture medium prepared by adding noggin (catalog number: 6057-NG-100/CF, 500 ng/mL, manufactured by R&D Systems, Inc.) and/or SB431542 (catalog number: 1614, 10 micromolars, manufactured by TOCRIS Bioscience) to a hES medium (−) bFGF for 5 days to 2 weeks to induce differentiation from human iPS cells to neural crest stem cells. The above-described iPS cell-derived neural crest stem cells were cultured in a D-MEM/F12 medium (catalog number: 10565-018, manufactured by Life Technologies Corporation) containing B-27 supplement (catalog number: 17504-044, 2% by mass, manufactured by life Technologies Corporation), EGF (catalog number: 336-EG-200, 20 ng/mL, manufactured by R&D Systems, Inc.), bFGF (catalog number: 064-04541, 40 ng/mL, manufactured by Wako Pure Chemical Industries, Ltd.), penicillin/streptomycin (catalog number: 15140-122, 50U, 50 microgram/mL, manufactured by Life Technologies Corporation) and 0 micromolar to 5 micromolars of CHIR99021 (catalog number 13122, manufactured by Cayman Chemical Company). […]

Take `Cc1c[nH]c(-c2cnc(NCCNc3ccc(C#N)cn3)nc2-c2ccc(Cl)cc2Cl)n1` [CHIR99021]: the “amount of cells differentiated to SKPs, after passage culture (P1)” value (after selective passage culture of SKPs, FIG. 2, P1) is “a larger amount of the cells differentiated to SKPs grew”. In addition, the “amount of cells differentiated to SKPs, before passage culture (P0)” value (culture 3 to 5 days, FIG. 2, P0) is on record as “a larger amount of the cells differentiated to SKPs was migrated in a peripheral area of the colony”.
